From patent publication US20190336537A1, “GENERATING ATRIAL AND VENTRICULAR CARDIOMYOCYTE LINEAGES FROM HUMAN PLURIPOTENT STEM CELLS” (UNIVERSITY HEALTH NETWORK, priority 2016, published 2019)

Columns and labels:
[1] = system: HES3 NKX2-5:GFP hESC-derived mesoderm; experiment: Specification of mesoderm populations to an atrial fate by ROH or RA (day 20 flow cytometry and qRT-PCR); assay type: cell-based, human
Experimental: To determine if the ALDH^+ cells can synthesize RA, the ALDH^+PDGFRalpha^+ and ALDH^− PDGFRalpha^+ fractions were isolated from the day 4 3B/2A-induced population, and the cells were cultured as aggregates in retinol (ROH), RA, or DMSO (control) for 24 hr (FIGS. 3A and 3B). ALDH1A2 expression segregated to the ALDH^+ fraction, confirming the validity of aldefluor-based sorting strategy for isolating RALDH2-expressing cells (FIG. 3C).
(§1) For cardiac differentiation, we used a modified version of our embryoid body (EB)-based protocol (Kattman et al., 2011). hPSC populations at 80%-90% confluence were dissociated into single cells (TrypLE, ThermoFisher) and re-aggregated to form EBs in StemPro-34 media (ThermoFisher) containing penicillin/streptomycin (1%, ThermoFisher), L-glutamine (2 mM, ThermoFisher), trans-ferrin (150 μg/ml, ROCHE), ascorbic acid (50 μg/ml, Sigma), and monothioglycerol (50 μg/ml, Sigma), ROCK inhibitor Y-27632 (10 μM, TOCRIS) and rhBMP4 (1 ng/ml, R&D) for 18 h on an orbital shaker. At day 1, the EBs were transferred to mesoderm induction media consisting of StemPro-34 with above supplements (-ROCK inhibitor Y-27632) and rhBMP4, rhActivinA (R&D) and rhbFGF (5 ng/ml, R&D) at the indicated concentrations. At day 3, the EBs were harvested, washed with IMDM and transferred to cardiac mesoderm specification media consisting of StemPro-34, the Wnt inhibitor IWP2 (1 μM, TOCRIS) and rhVEGF (10 ng/mL, R&D). At day 5, the EBs were transferred to Stem Pro-34 with rhVEGF (5 ng/ml) for another 7 days and then to Stem Pro-34 media without additional cytokines for further 8 days. At day 20, HES3-NKX2-5gfp/w-derived cardiomyocytes were analyzed and isolated based on the expression of NKX2-5:GFP and SIRPa and a lack of CD90. Cardiomyocytes generated from non-transgenic hPSC lines were analyzed and isolated as SIRPa+CD90− populations. Media was changed every 3 days. Cultures were incubated in a low oxygen environment (5% CO2, 5% O2, 90% N2) for first 12 days and a normoxic environment (5% CO2) for the following 8 days in total of 20 days. The EBs were cultured in ultra-low attachment 6-well dishes (Corning) throughout the differentiation for maintaining suspension cultures.
Following optimization, either ATRA (0.5 μM, Sigma) or retinol (2 μM, Sigma) was included in the cardiac mesoderm specification media from days 3-5 for the generation of atrial cardiomyocytes.
(§2) Day 2-6 EBs were dissociated with TrypLE for 2-4 min at room temperature (RT). Day 20 EBs were dissociated by incubation in Collagenase type 2 (0.5 mg/ml, Worthington) in HANKs buffer overnight at RT followed by TrypLE treatment as described above. The following antibodies were used for staining: anti-PDGFRa-PE (R&D Systems, 3:50), anti-CD235a-APC (BD PharMingen, 1:100), antiSIRPa-PeCy7 (Biolegend, 1:1000), anti-CD90-APC (BD PharMingen, 1:1000), anticardiac isoform of CTNT (ThermoFisher Scientific, 1:2000), or anti-myosin light chain 2 (Abcam, 1:1000). For unconjugated primary antibodies, the following secondary antibodies were used for detection: goat anti-mouse IgG-APC (BD Pharmigen, 1:250), or donkey anti-rabbit IgG-PE (Jackson ImmunoResearch, 1:250). Detailed antibody information is described in Table 2.
The Aldefluor™ assay (STEMCELL Technologies) was performed according to the instruction provided by the manufacturer. Briefly, day 2-6 EBs were dissociated as described above. […] Stained cells were analyzed as described above. […]

[2] = system: HES3 NKX2-5:GFP hESC-derived day 20 EB populations; experiment: Flow cytometric and immunostaining analyses of day 20 EB populations (CTNT, MLC2V, NKX2-5, COUPTFII); assay type: cell-based, human; set-up: frequency of NKX2-5+SIRPa+ cells in day 20 populations: dose or concentration left out as unconfirmed
Experimental: as §1, §2
For cell-surface marker analyses, cells were stained for 30 min at 4 degrees C. in FACS buffer consisting of PBS with 5% fetal calf serum (FCS) (Wisent) and 0.02% sodium azide. For intracellular staining, cells were fixed for 15 min at 4 degrees C. with 4% PFA in PBS followed by permeabilization using 90% methanol for 20 min at 4 degrees C. Cells were washed with PBS containing 0.5% BSA (Sigma) and stained with unconjugated primary antibodies in FACS buffer overnight at 4 degrees C. Stained cells were washed with PBS with 0.5% BSA and stained with secondary antibodies in FACS buffer for 1 h at 4 degrees C.
Stained cells were analyzed using the LSR II Flow cytometer (BD). For cell sorting, stained cells were kept in IMDM with 0.5% FCS and sorted using Influx (BD), FACSAriall (BD), MoFlo-XDP (BD) and FACSAria Fusion (BD) at the Sickids/UHN flow cytometry facility. Data were analyzed using FlowJo software (Tree Star).
Day 20 EBs were dissociated as described above and the cells plated onto 12 mm cover glasses (VWR) pre-coated with matrigel (25% v/v, BD). Cells were cultured for 3-5 days to enable the formation of adherent cell monolayers. Cells were fixed with
4% PFA in PBS for 10 min at room temperature and permeabilized with PBS containing 0.3% TritonX, 200 mM Glycine (Sigma) for 20 min at RT. Cells were blocked with PBS containing 10% FCS, 0.1% TritonX, and 2% BSA. […]

[3] = day 3 RA-treated mesoderm versus non-treated control

CC1=C(/C=C/C(C)=C/C=C/C(C)=C/C(=O)O)C(C)(C)CCC1 [RA, all trans retinoic acid]
atrial specification (MLC2V+, IRX4, KCNJ3, NR2F2) ([1]; 5B/12A-induced EBs, treated days 3-5): able to induce an atrial-like cardiomyocyte phenotype | atrial specification (MLC2V+ frequency, IRX4, KCNJ3) ([1]; ALDH+PDGFRalpha+ fraction, day 4, 3B/2A induced, 24 hr treatment): similar | frequency of NKX2-5+SIRPa+ cells in day 20 populations ([2]; RA): dramatic reduction | proportion of NKX2-5-GFP− cells ([2]; RA treatment days 3-5, day 20): did not influence | frequency of COUPTFII+ cells [2, 3]: much higher frequency | proportion of MLC2V+ cells [2, 3]: dramatic reduction
